# Results as given in patent US20240334933A1, “USE OF COMPOSITIONS WITH ETHOFUMESATE AND BIXLOZONE IN WHEAT CROPS” (BAYER AKTIENGESELLSCHAFT, priority 2021, published 2024).
# Where two headings read alike, the source gives them in different places.
# Experiments:
# wheat crop plants = assay: Own experiments: safening effect of mefenpyr-diethyl used with flufenacet; type: in vivo; conditions: used with flufenacet (WSSA group 15 herbicide)
# [1] = tested on: volunteer wheat (Triticum aestivum L.); conditions: cited from earlier work
# [2] = tested on: annual bluegrass (Poa annua L.); conditions: pre-emergence or early post-emergence at 0.8 to 4.5 kg/ha; cited from earlier work
# barley and wheat = conditions: greenhouse studies; cited from earlier work
# corn = conditions: applied 3 weeks before planting at rates of 2.2 to 9.0 kg/ha; cited from earlier work
Structure (SMILES),safening effect in wheat crop plants (wheat crop plants),"control of volunteer wheat ([1]; 1.7 kg/ha or more, wheat in the one- to three-leaf stage)",control of volunteer wheat ([1]; applied pre-emergence soon after planting or at the end of November to wheat in the four-leaf to four-tiller stage),control of annual bluegrass [2],susceptibility of barley and wheat to soil residues relative to corn (barley and wheat),corn yields (corn)
"CCOC(=O)C1=NN(c2ccc(Cl)cc2Cl)C(C)(C(=O)OCC)C1 (stereo not drawn) [Mefenpyr-diethyl, ethyl 1-(2,4-dichlorophenyl)-5-(ethoxycarbonyl)-5-methyl-2-pyrazoline-3-carboxylate]",does not have a safening effect,–,–,–,–,–
"CCOC1Oc2ccc(OS(C)(=O)=O)cc2C1(C)C (stereo not drawn) [Ethofumesate, 2-ethoxy-2,3-dihydro-3,3-dimethylbenzofuran-5-yl methanesulfonate]",–,eliminated the wheat,Wheat was not eliminated,eliminated annual bluegrass,about 10 times,reduced in proportion to the rate
